Reference: publication PMC7827406, “Structure–Activity Relationship (SAR) Study of Spautin-1 to Entail the Discovery of Novel NEK4 Inhibitors” (International Journal of Molecular Sciences, 2021)
Read-outs that look alike come from different tables or passages of the source.

Columns and labels:
Assay in all cases: biochemical
Parameters in all cases: Eurofins KinaseProfiler full panel at Km ATP, residual kinase activity (%) relative to DMSO
CaMKIV(h) = target: T1, CaMKIV(h) (Homo sapiens, UniProt Q16566)
T1 construct: gene CAMK4
T1 sequence (Q16566 1-473): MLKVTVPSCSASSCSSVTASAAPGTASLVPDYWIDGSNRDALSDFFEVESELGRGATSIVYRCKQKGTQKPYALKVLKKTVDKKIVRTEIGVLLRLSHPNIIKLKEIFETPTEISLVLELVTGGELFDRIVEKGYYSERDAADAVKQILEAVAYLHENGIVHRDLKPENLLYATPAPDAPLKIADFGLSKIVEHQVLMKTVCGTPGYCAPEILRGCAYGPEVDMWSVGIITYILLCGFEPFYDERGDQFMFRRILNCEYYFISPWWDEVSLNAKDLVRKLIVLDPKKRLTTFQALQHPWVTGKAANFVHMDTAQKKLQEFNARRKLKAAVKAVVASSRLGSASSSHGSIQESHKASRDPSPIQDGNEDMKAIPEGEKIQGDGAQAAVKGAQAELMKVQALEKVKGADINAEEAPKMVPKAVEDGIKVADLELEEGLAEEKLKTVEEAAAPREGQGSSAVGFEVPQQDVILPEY
Outline: (§1)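 Two 10 µM single-concentration screens were run: a competition-binding screen, in which DNA-tagged kinase bound to immobilized ligands was quantified by qPCR, and a radiometric activity panel at Km ATP. Each is expressed as residual kinase activity (%).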

KDR(h) = KDR(h) (Homo sapiens, UniProt P35968)
Outline: as §1

SAPK2b(h) = target: T2, SAPK2b(h) (Homo sapiens, UniProt Q15759)
T2 construct: gene MAPK11
Outline: as §1

cKit(V560G)(h) = target: T3, cKit(V560G)(h) (Homo sapiens, UniProt P10721, V560G)
T3 construct: gene KIT
Outline: as §1

eEF-2K(h) = target: T4, eEF-2K(h) (Homo sapiens, UniProt O00418)
T4 construct: gene EEF2K
T4 sequence (O00418 1-725): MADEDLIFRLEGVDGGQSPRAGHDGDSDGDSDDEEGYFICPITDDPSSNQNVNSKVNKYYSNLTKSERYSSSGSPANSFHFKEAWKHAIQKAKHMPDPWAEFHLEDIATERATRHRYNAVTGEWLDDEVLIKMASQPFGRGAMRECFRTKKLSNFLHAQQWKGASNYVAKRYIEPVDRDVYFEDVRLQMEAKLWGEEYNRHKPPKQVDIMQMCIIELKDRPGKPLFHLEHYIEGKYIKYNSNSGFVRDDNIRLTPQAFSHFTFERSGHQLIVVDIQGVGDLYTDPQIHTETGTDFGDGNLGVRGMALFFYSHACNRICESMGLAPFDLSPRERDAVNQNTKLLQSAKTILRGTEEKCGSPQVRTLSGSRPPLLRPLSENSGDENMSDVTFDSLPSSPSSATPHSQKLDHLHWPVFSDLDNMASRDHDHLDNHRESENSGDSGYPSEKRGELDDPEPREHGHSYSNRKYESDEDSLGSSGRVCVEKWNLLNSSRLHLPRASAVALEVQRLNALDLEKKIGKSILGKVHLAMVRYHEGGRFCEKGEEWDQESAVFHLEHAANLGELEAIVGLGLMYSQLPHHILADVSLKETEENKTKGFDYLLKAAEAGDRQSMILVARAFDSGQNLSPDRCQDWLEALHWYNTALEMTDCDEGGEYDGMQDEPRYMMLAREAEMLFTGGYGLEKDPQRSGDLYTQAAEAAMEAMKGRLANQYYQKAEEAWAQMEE
Outline: as §1

[1] = read-out: Residual activity (%) 5ay
[2] = read-out: Residual activity (%) Spautin-1 5aa
[3] = read-out: Residual activity (%) 5at
[4] = read-out: Residual activity (%) 5as

Chain of KDR(h) (P35968 whole entry): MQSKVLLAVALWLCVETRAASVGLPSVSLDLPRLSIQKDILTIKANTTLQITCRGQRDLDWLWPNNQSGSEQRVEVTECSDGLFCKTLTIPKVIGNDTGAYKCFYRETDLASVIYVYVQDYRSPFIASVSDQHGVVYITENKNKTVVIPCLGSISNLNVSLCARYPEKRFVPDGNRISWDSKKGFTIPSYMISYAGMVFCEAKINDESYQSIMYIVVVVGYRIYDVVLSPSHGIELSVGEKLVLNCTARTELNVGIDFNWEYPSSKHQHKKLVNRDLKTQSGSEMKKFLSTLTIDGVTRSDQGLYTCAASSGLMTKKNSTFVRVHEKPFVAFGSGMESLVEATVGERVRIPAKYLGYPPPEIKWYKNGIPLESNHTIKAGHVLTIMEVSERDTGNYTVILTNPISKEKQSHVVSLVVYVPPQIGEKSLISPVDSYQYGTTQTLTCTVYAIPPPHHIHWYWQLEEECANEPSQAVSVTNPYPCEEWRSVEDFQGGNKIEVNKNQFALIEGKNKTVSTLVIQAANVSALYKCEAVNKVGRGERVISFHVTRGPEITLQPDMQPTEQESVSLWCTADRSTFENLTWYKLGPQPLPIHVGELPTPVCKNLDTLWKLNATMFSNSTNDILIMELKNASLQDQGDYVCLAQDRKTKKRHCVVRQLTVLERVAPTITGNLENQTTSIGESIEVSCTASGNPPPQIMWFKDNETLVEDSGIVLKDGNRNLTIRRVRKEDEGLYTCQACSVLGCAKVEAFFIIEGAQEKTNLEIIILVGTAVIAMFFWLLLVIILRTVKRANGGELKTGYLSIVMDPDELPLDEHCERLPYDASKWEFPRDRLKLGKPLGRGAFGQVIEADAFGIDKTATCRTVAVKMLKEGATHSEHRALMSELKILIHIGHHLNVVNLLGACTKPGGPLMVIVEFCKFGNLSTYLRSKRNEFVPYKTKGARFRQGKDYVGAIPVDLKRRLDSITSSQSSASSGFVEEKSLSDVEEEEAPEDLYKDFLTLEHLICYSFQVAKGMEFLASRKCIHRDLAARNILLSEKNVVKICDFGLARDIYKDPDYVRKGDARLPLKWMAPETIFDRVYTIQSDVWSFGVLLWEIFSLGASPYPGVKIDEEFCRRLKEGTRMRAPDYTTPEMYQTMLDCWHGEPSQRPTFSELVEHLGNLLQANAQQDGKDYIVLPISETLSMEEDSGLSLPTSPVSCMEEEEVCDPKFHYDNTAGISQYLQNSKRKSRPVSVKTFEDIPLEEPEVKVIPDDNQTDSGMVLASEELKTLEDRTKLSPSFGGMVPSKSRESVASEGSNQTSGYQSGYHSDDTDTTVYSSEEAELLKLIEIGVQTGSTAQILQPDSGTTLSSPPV
T3 sequence (P10721 whole entry V560G): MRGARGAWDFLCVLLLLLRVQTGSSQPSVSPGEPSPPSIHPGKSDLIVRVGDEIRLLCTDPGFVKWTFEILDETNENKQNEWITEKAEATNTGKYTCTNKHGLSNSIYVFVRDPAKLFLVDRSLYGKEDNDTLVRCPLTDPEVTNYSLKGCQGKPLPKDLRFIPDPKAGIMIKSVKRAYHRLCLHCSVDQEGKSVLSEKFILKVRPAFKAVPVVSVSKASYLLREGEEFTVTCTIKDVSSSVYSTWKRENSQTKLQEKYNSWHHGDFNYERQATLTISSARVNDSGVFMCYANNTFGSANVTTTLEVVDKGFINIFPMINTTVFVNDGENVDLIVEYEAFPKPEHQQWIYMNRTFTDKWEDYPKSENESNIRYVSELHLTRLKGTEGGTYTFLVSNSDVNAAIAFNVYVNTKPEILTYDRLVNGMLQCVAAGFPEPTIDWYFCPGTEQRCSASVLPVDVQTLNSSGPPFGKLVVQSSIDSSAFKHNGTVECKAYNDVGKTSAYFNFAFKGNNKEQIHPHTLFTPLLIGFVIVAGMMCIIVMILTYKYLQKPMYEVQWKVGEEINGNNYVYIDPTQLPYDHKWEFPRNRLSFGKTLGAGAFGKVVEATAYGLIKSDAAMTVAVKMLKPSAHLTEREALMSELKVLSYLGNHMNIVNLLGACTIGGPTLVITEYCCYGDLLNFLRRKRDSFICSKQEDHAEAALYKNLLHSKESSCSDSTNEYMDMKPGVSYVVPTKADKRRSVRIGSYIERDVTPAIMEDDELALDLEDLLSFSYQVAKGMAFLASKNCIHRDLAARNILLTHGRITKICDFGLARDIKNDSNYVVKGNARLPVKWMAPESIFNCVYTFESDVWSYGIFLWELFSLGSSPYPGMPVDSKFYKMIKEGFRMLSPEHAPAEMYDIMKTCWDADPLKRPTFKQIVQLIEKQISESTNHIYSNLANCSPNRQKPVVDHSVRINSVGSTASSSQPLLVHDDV
T2 sequence (Q15759 whole entry): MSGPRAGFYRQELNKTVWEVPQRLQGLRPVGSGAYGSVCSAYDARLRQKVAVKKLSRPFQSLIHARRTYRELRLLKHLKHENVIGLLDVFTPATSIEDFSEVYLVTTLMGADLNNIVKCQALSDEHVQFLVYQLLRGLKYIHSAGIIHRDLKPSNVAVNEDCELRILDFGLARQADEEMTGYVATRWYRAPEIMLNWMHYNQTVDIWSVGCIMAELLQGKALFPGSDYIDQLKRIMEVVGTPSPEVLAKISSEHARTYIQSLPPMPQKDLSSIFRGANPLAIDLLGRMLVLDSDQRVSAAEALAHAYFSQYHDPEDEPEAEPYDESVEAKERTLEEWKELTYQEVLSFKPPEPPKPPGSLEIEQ

`COc1ccc2ncnc(Nc3cccc(F)c3)c2c1` [5ay, N-(3-Fluorophenyl)-6-Methoxy-4-Quinazolinamine] gave a remaining activity at 10 µM (CaMKIV(h); [1]) of 68%, a remaining activity at 10 µM (KDR(h); [1]) of 64% and a remaining activity at 10 µM (SAPK2b(h); [1]) of 83%. For the same molecule, the remaining activity at 10 µM (cKit(V560G)(h); [1]) was 106% and the remaining activity at 10 µM (eEF-2K(h); [1]) was 79%.
`Fc1ccc(CNc2ncnc3ccc(F)cc23)cc1` [5aa, 6-Fluoro-N-(4-fluorobenzyl)-4-Quinazolinamine] showed a remaining activity at 10 µM (CaMKIV(h); [2]) of 81%, a remaining activity at 10 µM (KDR(h); [2]) of 86% and a remaining activity at 10 µM (SAPK2b(h); [2]) of 79%. The remaining activity at 10 µM (cKit(V560G)(h); [2]) was 85% and the remaining activity at 10 µM (eEF-2K(h); [2]) was 87%.
In the case of `Fc1ccc2ncnc(NCCc3ccc(Cl)cc3)c2c1` [5at, N-[2-(4-Chlorophenyl)Ethyl]-6-Fluoro-4-Quinazolinamine], the remaining activity at 10 µM (CaMKIV(h); [3]) is reported as 81%, the remaining activity at 10 µM (KDR(h); [3]) is reported as 74% and the remaining activity at 10 µM (SAPK2b(h); [3]) is reported as 84%. The remaining activity at 10 µM (cKit(V560G)(h); [3]) was 90% and the remaining activity at 10 µM (eEF-2K(h); [3]) was 85%.
`Fc1ccc(CCNc2ncnc3ccc(F)cc23)cc1` [5as, 6-Fluoro-N-[2-(4-Fluorophenyl)Ethyl]-4-Quinazolinamine] showed a remaining activity at 10 µM (CaMKIV(h); [4]) of 75%, a remaining activity at 10 µM (KDR(h); [4]) of 77% and a remaining activity at 10 µM (SAPK2b(h); [4]) of 95%. It also gave a remaining activity at 10 µM (cKit(V560G)(h); [4]) of 105% and a remaining activity at 10 µM (eEF-2K(h); [4]) of 85%.
